Laboratory results published in patent US20110251285A1, “COMBINATIONS OF PRESERVATIVES FOR OPHTHALMIC COMPOSITIONS” (ALLERGAN, INC., priority 2010, published 2011).

Tested on: S. aureus, P. aeruginosa, c. albicans, E. coli and/or A. niger
Assay: abbreviated preservative efficacy test against USP, EP-A and EP-B criteria
Format: cell-based
Conditions: 20 ppm BAK alone
Experimental: Each of these formulations is tested by performing an abbreviated preservative efficacy test using test organisms S. aureus, P. aeruginosa, c. albicans, E. coli and/or A. niger. The formulations are tested against United States Pharmacopeia Preservative Efficacy Test (USP), European Pharmacopeia Efficacy Test-A (EP-A) and European Pharmacopeia Efficacy Test-B (EP-B) criteria as indicated. Ten (10) ml of each formulation is challenged with approximately 10^5 cfu/ml of test organism. At appropriate time intervals, the amount of bacterial and fungal survivors are assayed using Dey Engley broth (DE) as the neutralizer media. DE, along with filtration, is sufficient at neutralizing the antimicrobial agents in the compositions. One (1) ml of each sample is diluted into nine (9) ml of DE. One (1) ml of the 1:10 dilution is filtered through a 0.45 µm filter and washed with 100 ml of a saline/polysorbate 80 solution. After washing the filtrate a second time with 100 ml of saline/polysorbate 80 solution, the filtrate is placed onto a TSA plate for bacteria and SAB for fungi.

Substance: benzalkonium chloride [BAK]
- Ph Eur-B & A criteria: failed
